In patent US20090011418A1, “FUNCTIONAL TOLL-LIKE RECEPTORS (TLR) ON MELANOCYTES AND MELANOMA CELLS AND USES THEREOF” (JOHN WAYNE CANCER INSTITUTE, priority 2007, published 2009):

What was measured:
[1] = target: T1, TLR4 on the cell surface of melanoma lines (Homo sapiens, UniProt O00206+Q9Y6Y9); test: FITC-LPS fluorescence microscopy binding; details: 20 μg/ml FITC-LPS, 20 min, fixed cells
T1 construct: endogenous in cells; host or cells: human melanoma cell lines (fixed with paraformaldehyde); PBLs as comparison
T1 sequence (O00206 24-839): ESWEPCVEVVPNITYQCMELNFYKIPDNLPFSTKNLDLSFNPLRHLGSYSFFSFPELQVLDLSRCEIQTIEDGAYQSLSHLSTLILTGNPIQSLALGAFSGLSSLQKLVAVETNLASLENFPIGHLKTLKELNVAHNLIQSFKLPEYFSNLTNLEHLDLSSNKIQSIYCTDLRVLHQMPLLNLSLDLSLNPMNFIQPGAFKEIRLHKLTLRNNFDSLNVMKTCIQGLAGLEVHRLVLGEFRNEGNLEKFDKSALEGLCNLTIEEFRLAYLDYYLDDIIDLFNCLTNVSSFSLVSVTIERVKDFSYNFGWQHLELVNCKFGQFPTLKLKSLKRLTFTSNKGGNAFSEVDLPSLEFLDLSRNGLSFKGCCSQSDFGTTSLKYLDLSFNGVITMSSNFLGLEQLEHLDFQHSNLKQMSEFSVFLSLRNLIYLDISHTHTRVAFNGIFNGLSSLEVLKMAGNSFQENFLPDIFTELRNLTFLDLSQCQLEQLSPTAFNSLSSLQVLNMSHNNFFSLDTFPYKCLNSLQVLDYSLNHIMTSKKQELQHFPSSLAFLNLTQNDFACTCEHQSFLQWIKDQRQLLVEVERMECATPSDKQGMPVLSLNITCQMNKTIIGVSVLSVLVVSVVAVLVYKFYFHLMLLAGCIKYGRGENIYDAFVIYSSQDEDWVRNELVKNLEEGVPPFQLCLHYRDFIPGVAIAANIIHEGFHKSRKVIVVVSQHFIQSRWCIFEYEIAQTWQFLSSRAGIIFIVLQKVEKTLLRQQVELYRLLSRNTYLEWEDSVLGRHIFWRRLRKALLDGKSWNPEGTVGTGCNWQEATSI
T1 sequence (Q9Y6Y9 17-160 limits assumed): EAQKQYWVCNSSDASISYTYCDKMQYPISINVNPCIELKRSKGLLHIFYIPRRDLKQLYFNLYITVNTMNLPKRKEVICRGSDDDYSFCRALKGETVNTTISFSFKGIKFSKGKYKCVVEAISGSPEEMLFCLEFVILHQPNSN
Method: (§1) Cells were fixed with 4% paraformaldehyde in PBS for 10 min, and then incubated inside a 37° C. humidified atmosphere containing 5% CO2 for 20 min in RPMI 1640 medium supplemented with 10% FBS and 20 μg/ml of fluorescein isothiocyanate (FITC)-LPS (Sigma, St Louis, Mo.). After washing, cells were visualized using an Olympus IX70 fluorescence microscope. The images were recorded using an Olympus C-3030 Zoom Camedia Digital Camera.
The inventors employed FITC-LPS to assess binding to TLR4 on the cell surface of melanoma lines. PIC-FITC and zymosan-FITC were not available for assessment. […] The FITC-LPS analysis confirmed TLR4 receptor staining on the melanoma cell surface.

PBLs = test: FITC-LPS fluorescence microscopy staining; type: binding, human; details: 20 μg/ml FITC-LPS, 20 min, fixed cells
Method: as §1, with “Camera. […] The inventors employed FITC-LPS to assess binding to TLR4 on the cell surface of melanoma lines. PIC-FITC and zymosan-FITC were not available for assessment. […] The FITC-LPS analysis confirmed TLR4 receptor staining on the melanoma cell surface.” for “Camera.”

binding to melanoma cell surface (staining) [1]: direct binding of LPS to melanoma cells
Substance: fluorescein isothiocyanate (FITC)-LPS [FITC-LPS]
staining intensity of PBLs compared with melanoma cells (PBLs): stained with more intensity
